Assay results from patent US12016357B2, “Glycoside compositions” (CARGILL, INCORPORATED, priority 2015, dated 2024).

Legend:
[1] = Trained sensory panel rating of sweetness intensity (SEV) and bitterness intensity, Example 1; format: in vivo; details: for Sweetness Avg. / Bitter Avg.: mean of five replicate tests; for Bitter Avg.: caffeine scale 1-15
Protocol: A sensory panel was trained to scale sweetness and bitterness. Reference tasting standards were prepared by dissolving respective standard material (sucrose for sweetness and caffeine for bitterness) into an aqueous citric acid buffer solution at pH 3.1 (distilled water containing 0.1% citric acid and 0.015% sodium citrate) according to the scale values shown in Table 1 below.
Solutions were made in the same citric acid buffer as the reference standard solutions. All solutions were heated to 55° C. for 12 minutes to ensure that all the glycoside material was completely dissolved. The solutions were allowed to cool to room temperature before serving to the panelists. Each solution was given a random 3-digit code and was served to the panelists in random order. Panelists dispensed 2 mL of each solution into their mouths from a pipette. The panelists were then asked to rate the “sweetness intensity” and “bitterness intensity” of the solutions and mark their responses on an un-anchored, 15 cm line scale. The length of the line corresponds to the scale values (1-15) on which the participants were trained. The panelists' responses were measured, compiled, and averaged for each sample. Each sample was tested by approximately 17 to 21 trained panelists.
In between testing samples, the panelists cleansed their palates with water and apple slices. The panelists also waited 5 minutes between each sample. Sweetness and bitter values of rebaudioside D (purity of 94.4%) and rebaudioside M (purity of […]) at varying concentrations were also obtained utilizing a sensory panel in a manner as described above. The sweetness is reported as sweetness and the sweetness is measured as a sucrose equivalent (SEV).
The sweetness and bitterness values of sweetener compositions containing Reb D or Reb M with other glycosides are shown in Tables 3-5. As described above, the samples were tasted by the panelist in random order. The tables show the concentration of the composition tested (ppm) as well as the ratio of one glycoside to another in the composition as a weight percentage.

[2] = Trained sensory panel rating of sweetness and bitterness intensity, Example 2 (measured values, S/B); format: in vivo; details: for Measured Bitterness / Measured Sweetness: citric acid buffer, scale 1-15; for Measured S/B: sweetness/bitterness ratio
Protocol: A trained sensory panel evaluated solutions of each rebaudioside D, rebaudioside M, rebaudioside G, rebaudioside O, rebaudioside N and rebaudioside E at 400 ppm and 600 ppm. Solutions were made in a citric acid buffer as the reference standard solutions described in Example 1. All solutions were heated to 55° C. for 12 minutes to ensure that all the glycoside material was completely dissolved. The solutions were allowed to cool to room temperature before serving to the panelists. Each solution was given a random 3-digit code and was served to the panelists in random order. Panelists dispensed 2 mL of each solution into their mouths from a pipette. The panelists were then asked to rate the “sweetness intensity” and “bitterness intensity” of the solutions and mark their responses on an un-anchored, 15 cm line scale. The length of the line corresponds to the scale values (1-15) on which the participants were trained. The panelists' responses were measured, compiled, and averaged for each sample (measured sweetness values and bitterness values). In between testing samples, the panelists cleansed their palates with water and apple slices. The panelists also waited 5 minutes between each sample. Rebaudioside D (purity of 94.4%) was obtained from ChromaDex™ Corp and rebaudioside M (purity 99.3%) was obtained from Cargill, Incorporated. Rebaudioside G (purity of 96.0%), Rebaudioside O (purity of 97.9%), Rebaudioside N (purity of 93.5%), Rebaudioside E (purity of 97.2%) were each obtained from ChromaaDex™ Corp. […] Also shown in Table 7 is the sweetness/bitterness ratios (S/B).

[3] = 400 ppm in citric acid buffer pH 3.1
[4] = 600 ppm in citric acid buffer pH 3.1
[5] = total blend 400 ppm, citric acid buffer pH 3.1

C=C1C[C@@]23CC[C@H]4[C@@](C)(CCC[C@@]4(C)C(=O)O[C@@H]4O[C@H](CO)[C@@H](O)[C@H](O)[C@H]4O[C@@H]4O[C@H](CO)[C@@H](O)[C@H](O)[C@H]4O)[C@@H]2CC[C@]1(O[C@@H]1O[C@H](CO)[C@@H](O)[C@H](O[C@@H]2O[C@H](CO)[C@@H](O)[C@H](O)[C@H]2O)[C@H]1O[C@@H]1O[C@H](CO)[C@@H](O)[C@H](O)[C@H]1O)C3 [Reb D, Rebaudioside D]
Sweetness Avg. [1, 3]: 7.1 SEV
Bitter Avg. [1, 3]: 3.6
Sweetness Avg. [1, 4]: 8.3 SEV
Bitter Avg. [1, 4]: 4.2
Measured Bitterness ([2]; 400 ppm): 3.51
Measured Sweetness ([2]; 400 ppm): 7.08
Measured S/B ([2]; 400 ppm): 2.05
Measured Bitterness ([2]; 600 ppm): 3.80
Measured Sweetness ([2]; 600 ppm): 8.31
Measured S/B ([2]; 600 ppm): 2.23

C=C1C[C@@]23CC[C@H]4[C@@](C)(CCC[C@@]4(C)C(=O)O[C@@H]4O[C@H](CO)[C@@H](O)[C@H](O)[C@H]4O[C@@H]4O[C@H](CO)[C@@H](O)[C@H](O)[C@H]4O)[C@@H]2CC[C@]1(O[C@@H]1O[C@H](CO)[C@@H](O)[C@H](O)[C@H]1O[C@@H]1O[C@H](CO)[C@@H](O)[C@H](O)[C@H]1O)C3 [Reb E, Rebaudioside E]
Measured Bitterness ([2]; 400 ppm): 2.93
Measured Sweetness ([2]; 400 ppm): 4.53
Measured S/B ([2]; 400 ppm): 1.55
Measured Bitterness ([2]; 600 ppm): 2.98
Measured Sweetness ([2]; 600 ppm): 6.29
Measured S/B ([2]; 600 ppm): 2.11

C=C1C[C@@]23CC[C@H]4[C@@](C)(CCC[C@@]4(C)C(=O)O[C@@H]4O[C@H](CO)[C@@H](O)[C@H](O)[C@H]4O)[C@@H]2CC[C@]1(O[C@@H]1O[C@H](CO)[C@@H](O)[C@H](O[C@@H]2O[C@H](CO)[C@@H](O)[C@H](O)[C@H]2O)[C@H]1O)C3 [Reb G, Rebaudioside G]
Measured Bitterness ([2]; 400 ppm): 2.53
Measured Sweetness ([2]; 400 ppm): 2.17
Measured S/B ([2]; 400 ppm): 0.86
Measured Bitterness ([2]; 600 ppm): 2.30
Measured Sweetness ([2]; 600 ppm): 1.98
Measured S/B ([2]; 600 ppm): 0.84

C=C1C[C@@]23CC[C@H]4[C@@](C)(CCC[C@@]4(C)C(=O)O[C@@H]4O[C@H](CO)[C@@H](O)[C@H](O[C@@H]5O[C@H](CO)[C@@H](O)[C@H](O)[C@H]5O)[C@H]4O[C@@H]4O[C@H](CO)[C@@H](O)[C@H](O)[C@H]4O)[C@@H]2CC[C@]1(O[C@@H]1O[C@H](CO)[C@@H](O)[C@H](O[C@@H]2O[C@H](CO)[C@@H](O)[C@H](O)[C@H]2O)[C@H]1O[C@@H]1O[C@H](CO)[C@@H](O)[C@H](O)[C@H]1O)C3 [Reb M, Rebaudioside M]
Sweetness Avg. [1, 3]: 7.7 SEV
Bitter Avg. [1, 3]: 3.8
Sweetness Avg. [1, 4]: 8.4 SEV
Bitter Avg. [1, 4]: 4.2
Measured Bitterness ([2]; 400 ppm): 3.65
Measured Sweetness ([2]; 400 ppm): 7.76
Measured S/B ([2]; 400 ppm): 2.14
Measured Bitterness ([2]; 600 ppm): 3.76
Measured Sweetness ([2]; 600 ppm): 8.38
Measured S/B ([2]; 600 ppm): 2.26

C=C1C[C@@]23CC[C@H]4[C@@](C)(CCC[C@@]4(C)C(=O)O[C@@H]4O[C@H](CO)[C@@H](O)[C@H](O[C@@H]5O[C@H](CO)[C@@H](O)[C@H](O)[C@H]5O)[C@H]4O[C@@H]4O[C@@H](C)[C@H](O)[C@@H](O)[C@H]4O)[C@@H]2CC[C@]1(O[C@@H]1O[C@H](CO)[C@@H](O)[C@H](O[C@@H]2O[C@H](CO)[C@@H](O)[C@H](O)[C@H]2O)[C@H]1O[C@@H]1O[C@H](CO)[C@@H](O)[C@H](O)[C@H]1O)C3 [Reb N, Rebaudioside N]
Measured Bitterness ([2]; 400 ppm): 3.03
Measured Sweetness ([2]; 400 ppm): 7.44
Measured S/B ([2]; 400 ppm): 2.45
Measured Bitterness ([2]; 600 ppm): 3.25
Measured Sweetness ([2]; 600 ppm): 7.709
Measured S/B ([2]; 600 ppm): 2.37

C=C1C[C@@]23CC[C@H]4[C@@](C)(CCC[C@@]4(C)C(=O)O[C@@H]4O[C@H](CO)[C@@H](O)[C@H](O[C@@H]5O[C@H](CO)[C@@H](O)[C@H](O)[C@H]5O)[C@H]4O[C@@H]4O[C@@H](C)[C@H](O)[C@@H](O[C@@H]5O[C@H](CO)[C@@H](O)[C@H](O)[C@H]5O)[C@H]4O)[C@@H]2CC[C@]1(O[C@@H]1O[C@H](CO)[C@@H](O)[C@H](O[C@@H]2O[C@H](CO)[C@@H](O)[C@H](O)[C@H]2O)[C@H]1O[C@@H]1O[C@H](CO)[C@@H](O)[C@H](O)[C@H]1O)C3 [Reb O, Rebaudioside O]
Bitter [1, 5]: 3.1
Sweetness [1, 5]: 7.2 SEV
Measured Bitterness ([2]; 400 ppm): 2.98
Measured Sweetness ([2]; 400 ppm): 7.47
Measured S/B ([2]; 400 ppm): 2.51
Measured Bitterness ([2]; 600 ppm): 3.23
Measured Sweetness ([2]; 600 ppm): 7.669
Measured S/B ([2]; 600 ppm): 2.37
